Reference: patent publication US8912221B2, “Biaryl amide derivatives” (Hoffmann-La Roche Inc., priority 2010, dated 2014)

What was measured:
Bradykinin-1 receptor [1] = molecular target: T1, Bradykinin-1 receptor (Homo sapiens (Human), UniProt P46663); experiment: Calcium Mobilization Assay; assay type: cell-based; conditions: GeneBLAzer Bradykinin (B1)-NFAT-bla CHO-K1 cells; antagonist activity, FLIPR; read-out: Ca mobilization IC50
Experimental: Calcium Mobilization Assay
GeneBLAzer® Bradykinin (B1)-NFAT-bla CHO-K1 cells (from Invitrogen) stably overexpressing the human bradykinin 1 receptor were cultured in DMEM (high glucose) supplemented with 10% dialysed FBS, 1% NEAA (non essential amino acids) 1% penicillin/streptomycin, 1% G418 and 0.1 mg/ml zeocin.
For the assay cells were grown overnight in 384-well black clear flat bottom polystyrene plates (Costar) at 37° C. at 5% CO2. After washing with DMEM, 20 mM Hepes, 2.5 mM probenecid, 0.1% BSA (DMEM assay buffer) cells were loaded with 4 μM Fluo-4 in the same DMEM assay buffer for 2 hours at 30° C. Excess dye was removed and cells were washed with DMEM assay buffer. 384-well compound plates were prepared with DMEM assay buffer/0.5% DMSO with or without various concentrations of test compounds. Usually compounds were tested for agonist and antagonist activity.
Test compounds were added to the assay plate and agonist activity was monitored as fluorescence for 80 seconds with a FLIPR (488 nm excitation; 510-570 nm emission; Molecular Devices). […] Increases in intracellular calcium are reported as maximum fluorescence after agonist exposure minus basal fluorescence before exposure. Antagonist activity is indicated as inhibitor concentration required for 50% inhibition of specific calcium increases.

Bradykinin-1 receptor [2] = molecular target: T1, Bradykinin-1 receptor; experiment: Receptor Binding Assay; conditions: membranes from CHO-K1 cells overexpressing Bradykinin-1 receptor; 6 nM [3H]Kallidin (Des Arg10, Leu9); read-out: B1R Binding Ki
Experimental: Binding assays were done with membranes from CHO-K1 cells overexpressing Bradykinin-1 receptor.
For binding, Bradykinin-1 receptor antagonist compounds were added in various concentrations in 50 mM Tris pH 7.4, 5 mM MgCl2 together with 6 nM Kallidin (Des Arg^10, Leu^9), [3,4-Prolyl-3,4-^3H(N)] (PerkinElmer, 1.85-4.44 TBq/mmol) to 40 μg membrane protein containing approximately 1 fmol Bradykinin-1 receptor and incubated for 15 min at 27° C. To determine non-specific binding 10 μM Lys-(Des-Arg^9)-Bradykinin (Bachem) was added. Membranes were harvested through GF/B (glass fiber filter; PerkinElmer) plates, equilibrated with 0.5% polyethylenimine, air dried at 50° C. for 2 hr. Radioactivity was determined by counting in a topcounter (NXT Packard). Specific binding was defined as total binding minus nonspecific binding and typically represents about 90-95% of the total binding. Antagonist activity is expressed as Ki: inhibitor concentration required for 50% inhibition of specific binding corrected for the concentration of the radioligand.

T1 sequence (P46663 whole entry): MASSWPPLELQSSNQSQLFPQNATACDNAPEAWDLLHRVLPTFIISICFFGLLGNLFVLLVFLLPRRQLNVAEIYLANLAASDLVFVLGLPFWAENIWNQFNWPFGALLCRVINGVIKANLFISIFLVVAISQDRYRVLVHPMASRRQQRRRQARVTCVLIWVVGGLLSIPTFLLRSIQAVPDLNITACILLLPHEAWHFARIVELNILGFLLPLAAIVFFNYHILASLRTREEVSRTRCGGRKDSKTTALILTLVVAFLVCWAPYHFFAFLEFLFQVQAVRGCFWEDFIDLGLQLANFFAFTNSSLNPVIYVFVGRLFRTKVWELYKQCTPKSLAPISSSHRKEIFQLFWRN

Compound	IC50 (Bradykinin-1 receptor [1]) [nM]	Ki (Bradykinin-1 receptor [2]) [nM]
Cc1nc(-c2c(F)cc(Cl)cc2-c2cnc([C@@H](C)NC(=O)C3(NC(=O)c4cccnc4)COC3)c(F)c2)no1 [Example 30, N-[3-((R)-1-{5-[5-Chloro-3-fluoro-2-(5-methyl-[1,2,4]oxadiazol-3-yl)-phenyl]-3-fluoro-pyridin-2-yl}-ethylcarbamoyl)-oxetan-3-yl]-nicotinamide]	0.2	1.3
COc1ncc(C(=O)NC2(C(=O)N[C@H](C)c3ccc(-c4cc(Cl)cc(F)c4-c4noc(C)n4)cc3F)COC2)cn1 [Example 31, 2-Methoxy-pyrimidine-5-carboxylic acid (3-{(R)-1-[5′-chloro-3,3′-difluoro-2′-(5-methyl-[1,2,4]oxadiazol-3-yl)-biphenyl-4-yl]-ethylcarbamoyl}-oxetan-3-yl)-amide]	< 0.032	0.6
COc1ncc(C(=O)NC2(C(=O)N[C@H](C)c3ccc(-c4cc(Cl)cc(Cl)c4OCC(F)F)cc3F)COC2)cn1 [Example 35, 2-Methoxy-pyrimidine-5-carboxylic acid (3-{(R)-1-[3′,5′-dichloro-2′-(2,2-difluoro-ethoxy)-3-fluoro-biphenyl-4-yl]-ethylcarbamoyl}-oxetan-3-yl)-amide]	0.3	3.3
COc1ncc(C(=O)NC2(C(=O)N[C@H](C)c3ncc(-c4cc(Cl)cc(F)c4-c4nnn(C)n4)cc3F)COC2)cn1 [Example 36, 2-Methoxy-pyrimidine-5-carboxylic acid [3-((R)-1-{5-[5-chloro-3-fluoro-2-(2-methyl-2H-tetrazol-5-yl)-phenyl]-3-fluoro-pyridin-2-yl}-ethylcarbamoyl)-oxetan-3-yl]-amide]	0.2	1.2
Cc1nnc(C(=O)NC2(C(=O)N[C@H](C)c3ncc(-c4cc(Cl)cc(Cl)c4OCC(F)F)cc3F)COC2)o1 [Example 39, 5-Methyl-[1,3,4]oxadiazole-2-carboxylic acid [3-((R)-1-{5-[3,5-dichloro-2-(2,2-difluoro-ethoxy)-phenyl]-3-fluoro-pyridin-2-yl}-ethylcarbamoyl)-oxetan-3-yl]-amide]	3.9	8.7
COc1ncc(C(=O)NC2(C(=O)N[C@H](C)c3ncc(-c4cc(Cl)cc(Cl)c4OCC(F)F)cc3F)COC2)cn1 [Example 40, 2-Methoxy-pyrimidine-5-carboxylic acid [3-((R)-1-{5-[3,5-dichloro-2-(2,2-difluoro-ethoxy)-phenyl]-3-fluoro-pyridin-2-yl}-ethylcarbamoyl)-oxetan-3-yl]-amide]	0.1	1.1
COCC(=O)NC1(C(=O)N[C@H](C)c2ncc(-c3cc(Cl)cc(Cl)c3OCC(F)F)cc2F)COC1 [Example 42, 3-(2-Methoxy-acetylamino)-oxetane-3-carboxylic acid ((R)-1-{5-[3,5-dichloro-2-(2,2-difluoro-ethoxy)-phenyl]-3-fluoro-pyridin-2-yl}-ethyl)-amide]	201	119
COc1cc(C(=O)NC2(C(=O)N[C@H](C)c3ccc(-c4cc(Cl)cc(F)c4-c4nnn(C)n4)cc3F)COC2)on1 [Example 43, 3-Methoxy-isoxazole-5-carboxylic acid (3-{(R)-1-[5′-chloro-3,3′-difluoro-2′-(2-methyl-2H-tetrazol-5-yl)-biphenyl-4-yl]-ethylcarbamoyl}-oxetan-3-yl)-amide]	0.1	1.4

Further molecules by falling IC50 (Bradykinin-1 receptor [1]), results first:

IC50 (Bradykinin-1 receptor [1]) [nM]	Ki (Bradykinin-1 receptor [2]) [nM]	Compound
5.3	19.9	C[C@@H](NC(=O)C1(NC(=O)C(F)(F)F)COC1)c1ccc(-c2cc(Cl)cc(Cl)c2OCC(F)F)cc1F [Example 33, 3-(2,2,2-Trifluoro-acetylamino)-oxetane-3-carboxylic acid {(R)-1-[3′,5′-dichloro-2′-(2,2-difluoro-ethoxy)-3-fluoro-biphenyl-4-yl]-ethyl}-amide]
3.6	7.1	Cc1nnsc1C(=O)NC1(C(=O)N[C@H](C)c2ncc(-c3cc(Cl)cc(Cl)c3OCC(F)F)cc2F)COC1 [Example 41, 4-Methyl-[1,2,3]thiadiazole-5-carboxylic acid [3-((R)-1-{5-[3,5-dichloro-2-(2,2-difluoro-ethoxy)-phenyl]-3-fluoro-pyridin-2-yl}-ethylcarbamoyl)-oxetan-3-yl]-amide]
0.6	4.3	Cc1nnc(C(=O)NC2(C(=O)N[C@H](C)c3ccc(-c4cc(Cl)cc(Cl)c4OCC(F)F)cc3F)COC2)o1 [Example 38, 5-Methyl-[1,3,4]oxadiazole-2-carboxylic acid (3-{(R)-1-[3′,5′-dichloro-2′-(2,2-difluoro-ethoxy)-3-fluoro-biphenyl-4-yl]-ethylcarbamoyl}-oxetan-3-yl)-amide]
0.4	2.2	COc1cc(C(=O)NC2(C(=O)N[C@H](C)c3ncc(-c4cc(Cl)cc(F)c4-c4nnn(C)n4)cc3F)COC2)on1 [Example 34, 3-Methoxy-isoxazole-5-carboxylic acid [3-((R)-1-{5-[5-chloro-3-fluoro-2-(2-methyl-2H-tetrazol-5-yl)-phenyl]-3-fluoro-pyridin-2-yl}-ethylcarbamoyl)-oxetan-3-yl]-amide]
0.4	3.5	COc1cc(C(=O)NC2(C(=O)N[C@H](C)c3ccc(-c4cc(Cl)cc(Cl)c4OCC(F)F)cc3F)COC2)on1 [Example 37, 3-Methoxy-isoxazole-5-carboxylic acid (3-{(R)-1-[3′,5′-dichloro-2′-(2,2-difluoro-ethoxy)-3-fluoro-biphenyl-4-yl]-ethylcarbamoyl}-oxetan-3-yl)-amide]
0.2	2.3	C[C@@H](NC(=O)C1(NC(=O)c2ccno2)COC1)c1ccc(-c2cc(Cl)cc(Cl)c2OCC(F)F)cc1F [Example 32, Isoxazole-5-carboxylic acid (3-{(R)-1-[3′,5′-dichloro-2′-(2,2-difluoro-ethoxy)-3-fluoro-biphenyl-4-yl]-ethylcarbamoyl}-oxetan-3-yl)-amide]
0.1	1.1	COc1ncc(C(=O)NC2(C(=O)N[C@H](C)c3ccc(-c4cc(Cl)cc(F)c4-c4nnn(C)n4)cc3F)COC2)cn1 [Example 44, 2-Methoxy-pyrimidine-5-carboxylic acid (3-{(R)-1-[5′-chloro-3,3′-difluoro-2′-(2-methyl-2H-tetrazol-5-yl)-biphenyl-4-yl]-ethylcarbamoyl}-oxetan-3-yl)-amide]
